Data reported in US9221754B2, “Crystalline forms of zofenopril calcium” (Generics [UK] Limited, priority 2008, dated 2015).
Counter-ions that a name gives are not always drawn.

Legend:
Type in all cases: physicochemical
[1] = Mechanical stress during particle size reduction (milling using a multimill); details: calcium salt
[2] = Slurry in water (10% w/v) exposed to 50-55° C. for six hours; details: calcium salt
[3] = Pellet compression with an Infrared spectrophotometer press machine; details: pressure exerted ~10 Tons, calcium salt
[4] = Hygroscopicity of the crystalline forms
[5] = Polymorphic purity under dosage form preparation conditions (micronization or wet granulation)

## C[C@H](CSC(=O)c1ccccc1)C(=O)N1C[C@@H](Sc2ccccc2)C[C@H]1C(=O)O [Polymorph E, (4S)-1-[(2S)-3-(benzoylthio)-2-methylpropionyl]-4-(phenylthio)-L-proline calcium salt]
[1]
  polymorphic stability to mechanical stress (milling), by XRPD, DSC and TGA: retained its polymorphic composition
[2]
  polymorphic stability of the water slurry, by XRPD, DSC and TGA: no change
[3]
  polymorphic stability to compression, by XRPD, DSC and TGA: identical to that before compression
[4]
  hygroscopicity: non-hygroscopic

## C[C@H](CSC(=O)c1ccccc1)C(=O)N1C[C@@H](Sc2ccccc2)C[C@H]1C(=O)O [form C, (4S)-1-[(2S)-3-(benzoylthio)-2-methylpropionyl]-4-(phenylthio)-L-proline calcium salt]
[5]
  change in polymorphic purity during dosage form preparation: very slight changes in polymorphic purity

## C[C@H](CSC(=O)c1ccccc1)C(=O)N1C[C@@H](Sc2ccccc2)C[C@H]1C(=O)O [form F, (4S)-1-[(2S)-3-(benzoylthio)-2-methylpropionyl]-4-(phenylthio)-L-proline calcium salt]
[4]
  hygroscopicity: non-hygroscopic
